# Data taken from US20210369812A1, “OSTEOINDUCTIVE PEPTIDES, COMPOSITIONS, IMPLANTS, AND METHODS OF USE” (The Board of Regents of the University of Oklahoma, priority 2018, published 2021).
# Test system: hMSCs
# Assay: Immunofluorescence of osteoblast marker proteins
# Format: cell-based, human
# Conditions: hMSCs on phage films, 26 days, basal media
# Excerpt: OPN was detected with the primary antibody for OPN (RbpAB to osteopontin ab8448 from Abcam). The secondary antibody used was Goat Anti-Rabbit IgG H&L (Alexa Fluor 555) (ab150078) from Abcam (red). OCN was detected with the primary antibody for OCN [OC4-30] (ab13418) from Abcam). The secondary antibody used was Goat Anti-Mouse IgG H&L (Dylight 650) preadsorbed from abcam ab96882 (red). COL was detected using a primary antibody for COL (RbpAb to collagen 1 ab34710). The secondary antibody used was Goat Anti-Rabbit IgG H&L (Alexa Fluor 555) (ab150078) from abcam (red). Cell nuclei were stained by DAPI (blue) for all samples, and actin was stained by phalloidin (green).
# This procedure can be scaled for any size well plates or petri dish, but the volumes included are for 96-well tissue culture plates. […]
# After culturing hMSCs on phage films for 26 days, the cells were fixed with 4% paraformaldehyde (10 min) and permeabilized with 0.2% Triton X-100 (2 min) at room temperature. […] The osteogenic protein markers osteopontin (OPN), osteocalcin (OCN), and collagen type 1A (COL) were detected through immunofluorescence. OPN was detected with the primary antibody for OPN (RbpAB to osteopontin ab8448 from Abcam). […] OCN was detected with the primary antibody for OCN [OC4-30] […] COL was detected using a primary antibody for COL (RbpAb to collagen 1 ab34710). […]
sequence,measurement,value
VHVPLHRGAVSA (Completely synthesized in the lab - Ph.D.-12 Phage Display Peptide Library Kit (New England Biolabs)),Osteocalcin protein expression (immunofluorescence),slightly greater osteocalcin production
same,Osteopontin protein expression (immunofluorescence),qualitatively higher level of osteopontin protein expression than the other groups and a higher expression than the positive control
